Assay results taken from patent US20260053834A1, “COVALENT MODIFIERS OF AKT1 AND USES THEREOF” (Terremoto Biosciences, Inc., priority 2023, published 2026).

How the values were obtained:
AKT1 E17K = molecular target: T1, AKT1 E17K (Homo sapiens, UniProt P31749, E17K); assay: Live cell target engagement by NanoBRET competitive probe displacement, AKT1 E17K; assay type: binding; conditions: transfected HEK293 cells, 2 h at 37° C., read-out: AKT1 E17K IC50: GeoMean IC50
T1 construct: expressed in transfected cells; host or cells: HEK293
T1 sequence (P31749 whole entry E17K): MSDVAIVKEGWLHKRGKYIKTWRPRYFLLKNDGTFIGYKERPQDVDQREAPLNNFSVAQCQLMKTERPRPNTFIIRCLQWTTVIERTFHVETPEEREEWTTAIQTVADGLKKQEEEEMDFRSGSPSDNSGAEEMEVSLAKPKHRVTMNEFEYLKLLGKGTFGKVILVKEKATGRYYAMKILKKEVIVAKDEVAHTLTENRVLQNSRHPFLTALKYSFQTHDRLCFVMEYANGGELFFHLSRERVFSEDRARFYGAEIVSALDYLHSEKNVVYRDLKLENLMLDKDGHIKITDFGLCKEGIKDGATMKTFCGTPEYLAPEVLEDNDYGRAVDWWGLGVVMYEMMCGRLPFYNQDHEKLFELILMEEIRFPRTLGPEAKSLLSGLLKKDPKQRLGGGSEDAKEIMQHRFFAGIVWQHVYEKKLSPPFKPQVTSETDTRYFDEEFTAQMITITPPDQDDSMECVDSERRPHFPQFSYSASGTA

[1] = tested on: LAPC4 prostate cancer cells, which express the AKT1 E17K allele; assay: Antiproliferative effects in LAPC4 cells (CellTiter Glo, 72 h); assay type: cell-based; conditions: Homo sapiens, LAPC4, 72 h, read-out: LAPC4 proliferation IC50: GeoMean IC50
Method in brief: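 Cells grown in IMDM with 12% FBS, seeded at 1,000 cells/well and treated with compound dilutions in DMSO for 72 h. Intracellular ATP read by luminescence. IC50 from a log(inhibitor) vs. response Hill fit.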

AKT1 WT = molecular target: T2, AKT1 WT (Homo sapiens, UniProt P31749); assay: Live cell target engagement by NanoBRET competitive probe displacement, AKT1 WT; assay type: binding; conditions: transfected HEK293 cells, 2 h at 37° C., read-out: AKT1 WT IC50: GeoMean IC50
T2 construct: expressed in transfected cells; host or cells: HEK293
T2 sequence (P31749 whole entry): as the sequence (P31749 whole entry E17K) above, with K17E counted along it

AKT2 = molecular target: T3, AKT2 (Homo sapiens, UniProt P31751); assay: Live cell target engagement by NanoBRET competitive probe displacement, AKT2; assay type: binding; conditions: transfected HEK293 cells, 2 h at 37° C., read-out: AKT2 IC50: GeoMean IC50
T3 construct: expressed in transfected cells; host or cells: HEK293
T3 sequence (P31751 whole entry): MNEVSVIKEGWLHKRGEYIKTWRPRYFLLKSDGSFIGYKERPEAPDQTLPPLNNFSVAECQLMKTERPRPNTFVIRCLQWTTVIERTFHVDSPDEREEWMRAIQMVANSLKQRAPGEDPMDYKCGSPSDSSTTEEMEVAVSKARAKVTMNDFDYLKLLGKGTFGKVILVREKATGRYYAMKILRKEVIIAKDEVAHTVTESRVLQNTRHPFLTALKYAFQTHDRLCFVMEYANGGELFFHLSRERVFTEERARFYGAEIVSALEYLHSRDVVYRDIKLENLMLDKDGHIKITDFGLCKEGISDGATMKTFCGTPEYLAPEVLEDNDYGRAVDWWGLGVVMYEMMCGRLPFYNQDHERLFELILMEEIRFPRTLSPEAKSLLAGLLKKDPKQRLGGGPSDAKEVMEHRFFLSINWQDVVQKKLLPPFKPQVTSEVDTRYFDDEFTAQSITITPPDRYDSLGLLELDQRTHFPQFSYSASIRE

With `CN(C)Cc1cc(C(=O)N[C@H]2CCc3cc(-n4c(-c5cccnc5N)nc5ccc(-n6cccn6)nc54)ccc32)cc(C=O)c1O` [Example 192, N-[(1S)-5-[2-(2-aminopyridin-3-yl)-5-(pyrazol-1-yl)imidazo[4,5-b]pyridin-3-yl]-2,3-dihydro-1H-inden-1-yl]-3-[(dimethylamino)methyl]-5-formyl-4-hydroxybenzamide] the IC50 (AKT1 E17K) was 100 to 2000 nM, the IC50 [1] was no less than 2000 nM and the IC50 (AKT1 WT) was 100 to 2000 nM. It also gave an IC50 (AKT2) of no less than 2000 nM.

`Nc1ncccc1-c1nc2ccc(-c3cc4n(n3)CCOC4)nc2n1-c1ccc2c(c1)CC[C@@H]2NC(=O)c1cc(C=O)c(O)cc1F` [Example 246, N-[(1S)-5-[2-(2-aminopyridin-3-yl)-5-{4H,6H,7H-pyrazolo[3,2-c][1,4]oxazin-2-yl}imidazo[4,5-b]pyridin-3-yl]-2,3-dihydro-1H-inden-1-yl]-2-fluoro-5-formyl-4-hydroxybenzamide] was tested, and the IC50 (AKT1 E17K) was 10 to 100 nM, the IC50 [1] was 10 to 100 nM and the IC50 (AKT1 WT) was 10 to 100 nM. The IC50 (AKT2) was 100 to 2000 nM.

Compound `Nc1ncccc1-c1nc2ccc(-n3nccn3)nc2n1-c1ccc2c(c1)CC[C@@H]2NC(=O)c1cc(F)c(O)c(C=O)c1` [Example 115, N-[(1S)-5-[2-(2-aminopyridin-3-yl)-5-(1,2,3-triazol-2-yl)imidazo[4,5-b]pyridin-3-yl]-2,3-dihydro-1H-inden-1-yl]-3-fluoro-5-formyl-4-hydroxybenzamide] has an IC50 (AKT1 E17K) of 10 to 100 nM, an IC50 [1] of 10 to 100 nM and an IC50 (AKT1 WT) of 10 to 100 nM. The IC50 (AKT2) was 100 to 2000 nM.

Compound `Nc1ncccc1-c1nc2ccc(-n3cc(F)cn3)nc2n1-c1ccc2c(c1)CC[C@@H]2NC(=O)c1ccc(O)c(C=O)c1` [Example 76, N-[(1S)-5-[2-(2-aminopyridin-3-yl)-5-(4-fluoropyrazol-1-yl)imidazo[4,5-b]pyridin-3-yl]-2,3-dihydro-1H-inden-1-yl]-3-formyl-4-hydroxybenzamide] has an IC50 (AKT1 E17K) of 10 to 100 nM, an IC50 [1] of 100 to 2000 nM and an IC50 (AKT1 WT) of 100 to 2000 nM. The IC50 (AKT2) was 100 to 2000 nM.

`Nc1ncccc1-c1nc2ccc(-c3cncnc3)nc2n1-c1ccc2c(c1)CC[C@@H]2NC(=O)c1ccc(O)c(C=O)c1` [Example 58, N-[(1S)-5-[2-(2-aminopyridin-3-yl)-5-(pyrimidin-5-yl)imidazo[4,5-b]pyridin-3-yl]-2,3-dihydro-1H-inden-1-yl]-3-formyl-4-hydroxybenzamide] gave an IC50 (AKT1 E17K) of 10 to 100 nM, an IC50 [1] of 10 to 100 nM and an IC50 (AKT1 WT) of 10 to 100 nM. It also gave an IC50 (AKT2) of 100 to 2000 nM.

Work on `Nc1ncccc1-c1nc2ccc(-c3ccccc3)nc2n1-c1ccc2c(c1)C(=O)C[C@@H]2NC(=O)c1ccc(O)c(C=O)c1` [Example 74, N-[(1S)-5-[2-(2-aminopyridin-3-yl)-5-phenylimidazo[4,5-b]pyridin-3-yl]-3-oxo-1,2-dihydroinden-1-yl]-3-formyl-4-hydroxybenzamide] yielded an IC50 (AKT1 E17K) of 10 to 100 nM, an IC50 [1] of 100 to 2000 nM and an IC50 (AKT1 WT) of 100 to 2000 nM. It also gave an IC50 (AKT2) of 100 to 2000 nM.

`Nc1ncccc1-c1nc2ccc(-n3cccn3)nc2n1-c1ccc2c(c1)CC[C@@H]2NC(=O)c1cc(C=O)c2[nH]ncc2c1` [Example 66, N-[(1S)-5-[2-(2-aminopyridin-3-yl)-5-(pyrazol-1-yl)imidazo[4,5-b]pyridin-3-yl]-2,3-dihydro-1H-inden-1-yl]-7-formyl-1H-indazole-5-carboxamide] gave an IC50 (AKT1 E17K) of less than 10 nM, an IC50 [1] of 10 to 100 nM and an IC50 (AKT1 WT) of 10 to 100 nM. The IC50 (AKT2) was 100 to 2000 nM.

Compound `C#Cc1ccn(-c2ccc3nc(-c4cccnc4N)n(-c4ccc5c(c4)CC[C@@H]5NC(=O)c4ccc(O)c(C=O)c4)c3n2)n1` [Example 119, N-[(1S)-5-[2-(2-aminopyridin-3-yl)-5-(3-ethynylpyrazol-1-yl)imidazo[4,5-b]pyridin-3-yl]-2,3-dihydro-1H-inden-1-yl]-3-formyl-4-hydroxybenzamide] has an IC50 (AKT1 E17K) of less than 10 nM, an IC50 [1] of 10 to 100 nM and an IC50 (AKT1 WT) of 10 to 100 nM. For the same compound, the IC50 (AKT2) was 100 to 2000 nM.
